# Source: PMC12406253, “Exploration of the Neuromodulatory Properties of Fyn and GSK-3β Kinases Exploiting 7‑Azaindole-Based Inhibitors” (Journal of Medicinal Chemistry, 2025)
# Key:
# [1] = tested on: primary rat cerebellar granule neurons (CGNs); test: Neuroprotection in CGNs, serum/potassium deprivation (MTT); assay type: cell-based; conditions: 5, 10, and 25 μM, 48 h
# Text: First, we evaluated the neuroprotective properties of the selected compounds in the same cell line, once the expression of Fyn and GSK-3β in this cellular model was verified (Figure S2), after a serum/potassium deprivation experiment, which simulates physiological aging (and mortality), triggering around 20% of cell death. In particular, 7 days differentiated CGNs were exposed to serum-free BME medium with low extracellular concentration of K^+ ions and treated at selected doses (i.e., 5, 10, and 25 μM) of compounds for 48 h. Neuronal viability was then determined with an MTT assay.
# To evaluate the neuroprotective effect of our compounds, we tested increasing concentrations (5 μM, 10 μM, 25 μM) of compounds of interest in differentiated CGNs switched to serum-free BME medium with 5 mM KCl (serum-potassium deprivation) for 48 h to mimic in vitro the naturally occurring death of granule cells. Neuroprotection was evaluated through MTT assay.
# For MTT assay, thiazolyl blue was added to the culture medium at a final concentration of 0.1 mg/mL. Following a 20 min incubation at 37 °C in the dark, the MTT precipitate was dissolved in 0.1 M Tris–HCl pH 7.5 buffer containing 5% Triton X-100 (all from Sigma-Aldrich) and absorbance was read at 570 nm in a microplate spectrophotometric reader (Bio-Rad).
# Abl(h) = molecular target: T1, Abl(h) (Homo sapiens, UniProt P00519); test: Eurofins KinaseProfiler radiometric kinase assay; assay type: biochemical; conditions: for Abl inhibition: 10 µM; for remaining activity at 10 µM: read-out: Abl(h) % Residual activity
# T1 construct: purchased Eurofins KinaseProfiler (Eurofins Cerep)
# T1 sequence (P00519 whole entry): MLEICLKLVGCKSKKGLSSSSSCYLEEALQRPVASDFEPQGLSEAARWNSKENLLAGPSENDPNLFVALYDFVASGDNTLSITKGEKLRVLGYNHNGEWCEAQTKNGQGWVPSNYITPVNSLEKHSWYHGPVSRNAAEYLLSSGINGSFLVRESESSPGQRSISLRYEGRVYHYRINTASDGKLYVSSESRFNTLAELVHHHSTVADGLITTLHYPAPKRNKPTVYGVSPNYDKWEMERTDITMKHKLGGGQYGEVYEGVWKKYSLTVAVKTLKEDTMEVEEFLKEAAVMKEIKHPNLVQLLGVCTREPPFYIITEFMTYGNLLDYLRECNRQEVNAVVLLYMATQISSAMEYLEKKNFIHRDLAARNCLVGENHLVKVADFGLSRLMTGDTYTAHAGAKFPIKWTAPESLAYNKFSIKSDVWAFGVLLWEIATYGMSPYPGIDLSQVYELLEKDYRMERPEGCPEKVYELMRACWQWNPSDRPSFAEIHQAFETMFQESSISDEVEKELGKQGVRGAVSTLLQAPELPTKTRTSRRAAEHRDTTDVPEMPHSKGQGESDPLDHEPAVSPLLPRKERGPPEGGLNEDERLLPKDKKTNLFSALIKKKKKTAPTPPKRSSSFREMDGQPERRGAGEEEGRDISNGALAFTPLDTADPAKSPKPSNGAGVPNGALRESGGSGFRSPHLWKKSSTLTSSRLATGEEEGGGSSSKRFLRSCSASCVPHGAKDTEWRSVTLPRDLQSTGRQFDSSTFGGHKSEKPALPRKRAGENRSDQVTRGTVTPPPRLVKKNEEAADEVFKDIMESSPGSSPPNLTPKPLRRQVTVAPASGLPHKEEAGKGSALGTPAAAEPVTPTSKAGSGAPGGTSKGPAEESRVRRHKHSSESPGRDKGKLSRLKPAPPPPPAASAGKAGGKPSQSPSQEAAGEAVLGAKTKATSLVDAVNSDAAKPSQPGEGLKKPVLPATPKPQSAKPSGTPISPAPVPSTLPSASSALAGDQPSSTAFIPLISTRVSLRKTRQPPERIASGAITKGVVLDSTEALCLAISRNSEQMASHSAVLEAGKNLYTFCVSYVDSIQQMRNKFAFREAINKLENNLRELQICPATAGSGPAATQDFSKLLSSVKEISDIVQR
# AMPKα1(h) = molecular target: T2, AMPKα1(h) (Homo sapiens, UniProt Q13131); test: Eurofins KinaseProfiler radiometric kinase assay; assay type: biochemical; conditions: read-out: AMPKα1(h) % Residual activity
# T2 construct: purchased Eurofins KinaseProfiler (Eurofins Cerep)
# CDK2/cyclinA(h) = molecular target: T3, CDK2/cyclinA(h) (Homo sapiens, UniProt P24941); test: Eurofins KinaseProfiler radiometric kinase assay; assay type: biochemical; conditions: read-out: CDK2/cyclinA(h) % Residual activity
# T3 construct: purchased Eurofins KinaseProfiler (Eurofins Cerep)
# CDK9/cyclin T1(h) = molecular target: T4, CDK9/cyclin T1(h) (Homo sapiens, UniProt P50750); test: Eurofins KinaseProfiler radiometric kinase assay; assay type: biochemical; conditions: for remaining activity at 10 µM: read-out: CDK9/cyclin T1(h) % Residual activity
# T4 construct: purchased Eurofins KinaseProfiler (Eurofins Cerep)
# T4 sequence (P50750 whole entry): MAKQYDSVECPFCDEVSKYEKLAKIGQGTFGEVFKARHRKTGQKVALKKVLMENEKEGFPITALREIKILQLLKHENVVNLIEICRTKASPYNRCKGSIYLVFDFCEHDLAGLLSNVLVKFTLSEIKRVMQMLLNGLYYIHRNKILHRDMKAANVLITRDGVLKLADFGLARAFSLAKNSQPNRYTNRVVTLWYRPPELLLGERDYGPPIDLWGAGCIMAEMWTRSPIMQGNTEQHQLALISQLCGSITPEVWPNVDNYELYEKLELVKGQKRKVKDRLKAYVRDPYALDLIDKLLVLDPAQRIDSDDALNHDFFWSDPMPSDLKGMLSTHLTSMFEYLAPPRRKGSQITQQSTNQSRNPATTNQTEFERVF
# T4 sequence (O60563 whole entry partner): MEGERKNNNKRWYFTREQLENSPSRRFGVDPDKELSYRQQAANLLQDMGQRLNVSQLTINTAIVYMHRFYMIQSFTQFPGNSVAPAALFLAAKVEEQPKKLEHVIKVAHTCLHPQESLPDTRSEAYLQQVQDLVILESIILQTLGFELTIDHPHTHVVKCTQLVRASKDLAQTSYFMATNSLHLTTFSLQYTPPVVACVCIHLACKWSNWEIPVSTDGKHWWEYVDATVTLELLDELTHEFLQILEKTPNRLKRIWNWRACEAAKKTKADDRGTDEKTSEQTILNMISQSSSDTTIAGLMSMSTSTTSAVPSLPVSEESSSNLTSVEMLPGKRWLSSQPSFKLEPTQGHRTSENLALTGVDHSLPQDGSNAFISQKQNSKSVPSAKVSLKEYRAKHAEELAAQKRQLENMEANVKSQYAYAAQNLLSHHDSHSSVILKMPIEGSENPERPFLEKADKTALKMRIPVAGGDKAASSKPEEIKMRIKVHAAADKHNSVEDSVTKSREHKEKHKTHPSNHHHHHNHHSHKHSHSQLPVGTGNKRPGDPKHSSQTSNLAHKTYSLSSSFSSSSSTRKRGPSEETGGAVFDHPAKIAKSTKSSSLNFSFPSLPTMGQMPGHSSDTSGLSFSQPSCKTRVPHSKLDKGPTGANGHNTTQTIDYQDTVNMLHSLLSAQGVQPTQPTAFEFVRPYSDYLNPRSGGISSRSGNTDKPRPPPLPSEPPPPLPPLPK
# CK2α2(h) = molecular target: T5, CK2α2(h) (Homo sapiens, UniProt P19784); test: Eurofins KinaseProfiler radiometric kinase assay; assay type: biochemical; conditions: read-out: CK2α2(h) % Residual activity
# T5 construct: purchased Eurofins KinaseProfiler (Eurofins Cerep)
# c-RAF(h) = molecular target: T6, c-RAF(h) (Homo sapiens, UniProt P04049); test: Eurofins KinaseProfiler radiometric kinase assay; assay type: biochemical; conditions: read-out: c-RAF(h) % Residual activity
# T6 construct: purchased Eurofins KinaseProfiler (Eurofins Cerep)
# DRAK1(h) = molecular target: T7, DRAK1(h) (Homo sapiens, UniProt Q9UEE5); test: Eurofins KinaseProfiler radiometric kinase assay; assay type: biochemical; conditions: for remaining activity at 10 µM: read-out: DRAK1(h) % Residual activity
# T7 construct: purchased Eurofins KinaseProfiler (Eurofins Cerep)
# T7 sequence (Q9UEE5 1-414): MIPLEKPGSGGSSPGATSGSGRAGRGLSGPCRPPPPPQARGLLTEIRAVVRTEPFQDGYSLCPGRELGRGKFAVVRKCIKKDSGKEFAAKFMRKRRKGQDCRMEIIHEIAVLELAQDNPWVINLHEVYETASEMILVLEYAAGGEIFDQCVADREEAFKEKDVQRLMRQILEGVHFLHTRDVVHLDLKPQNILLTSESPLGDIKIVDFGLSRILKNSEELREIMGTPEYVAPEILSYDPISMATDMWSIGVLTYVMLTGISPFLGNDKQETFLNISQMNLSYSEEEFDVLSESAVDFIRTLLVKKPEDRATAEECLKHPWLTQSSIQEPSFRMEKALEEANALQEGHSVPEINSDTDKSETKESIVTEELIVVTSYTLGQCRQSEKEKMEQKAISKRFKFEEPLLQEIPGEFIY
# eEF-2K(h) = molecular target: T8, eEF-2K(h) (Homo sapiens, UniProt O00418); test: Eurofins KinaseProfiler radiometric kinase assay; assay type: biochemical; conditions: read-out: eEF-2K(h) % Residual activity
# T8 construct: purchased Eurofins KinaseProfiler (Eurofins Cerep)
# EphA5(h) = molecular target: T9, EphA5(h) (Homo sapiens, UniProt P54756); test: Eurofins KinaseProfiler radiometric kinase assay; assay type: biochemical; conditions: read-out: EphA5(h) % Residual activity
# T9 construct: purchased Eurofins KinaseProfiler (Eurofins Cerep)
# T9 sequence (P54756 25-1037): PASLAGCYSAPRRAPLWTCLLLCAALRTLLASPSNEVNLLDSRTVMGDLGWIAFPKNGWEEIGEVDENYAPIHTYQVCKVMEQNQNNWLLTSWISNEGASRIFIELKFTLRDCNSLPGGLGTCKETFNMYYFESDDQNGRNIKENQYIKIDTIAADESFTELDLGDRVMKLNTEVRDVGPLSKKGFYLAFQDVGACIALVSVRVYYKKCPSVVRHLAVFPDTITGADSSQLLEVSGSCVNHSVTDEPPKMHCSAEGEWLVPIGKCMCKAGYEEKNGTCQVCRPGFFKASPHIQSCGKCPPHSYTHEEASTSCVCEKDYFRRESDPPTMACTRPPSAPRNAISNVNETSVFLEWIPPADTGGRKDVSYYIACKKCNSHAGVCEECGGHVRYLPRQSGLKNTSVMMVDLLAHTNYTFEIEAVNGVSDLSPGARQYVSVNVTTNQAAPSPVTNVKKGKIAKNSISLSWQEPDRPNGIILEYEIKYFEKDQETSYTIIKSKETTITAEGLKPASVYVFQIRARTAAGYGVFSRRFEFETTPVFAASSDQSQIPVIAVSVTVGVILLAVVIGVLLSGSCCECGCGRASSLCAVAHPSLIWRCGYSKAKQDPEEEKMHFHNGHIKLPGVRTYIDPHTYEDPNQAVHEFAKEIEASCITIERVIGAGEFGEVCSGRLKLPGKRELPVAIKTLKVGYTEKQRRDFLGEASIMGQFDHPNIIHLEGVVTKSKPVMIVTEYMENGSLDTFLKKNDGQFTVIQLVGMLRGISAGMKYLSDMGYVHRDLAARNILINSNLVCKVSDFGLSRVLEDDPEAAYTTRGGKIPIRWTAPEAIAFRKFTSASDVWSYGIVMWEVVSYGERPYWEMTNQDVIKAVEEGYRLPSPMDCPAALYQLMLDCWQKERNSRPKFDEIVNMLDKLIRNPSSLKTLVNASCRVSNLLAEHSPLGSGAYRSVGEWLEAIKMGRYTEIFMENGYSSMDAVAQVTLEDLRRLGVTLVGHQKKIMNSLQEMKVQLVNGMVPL
# EphB4(h) = molecular target: T10, EphB4(h) (Homo sapiens, UniProt P54760); test: Eurofins KinaseProfiler radiometric kinase assay; assay type: biochemical; conditions: read-out: EphB4(h) % Residual activity
# T10 construct: purchased Eurofins KinaseProfiler (Eurofins Cerep)
# IKKα(h) = molecular target: T11, IKKα(h) (Homo sapiens, UniProt O15111); test: Eurofins KinaseProfiler radiometric kinase assay; assay type: biochemical; conditions: read-out: IKKα(h) % Residual activity
# T11 construct: purchased Eurofins KinaseProfiler (Eurofins Cerep)
# T11 sequence (O15111 whole entry): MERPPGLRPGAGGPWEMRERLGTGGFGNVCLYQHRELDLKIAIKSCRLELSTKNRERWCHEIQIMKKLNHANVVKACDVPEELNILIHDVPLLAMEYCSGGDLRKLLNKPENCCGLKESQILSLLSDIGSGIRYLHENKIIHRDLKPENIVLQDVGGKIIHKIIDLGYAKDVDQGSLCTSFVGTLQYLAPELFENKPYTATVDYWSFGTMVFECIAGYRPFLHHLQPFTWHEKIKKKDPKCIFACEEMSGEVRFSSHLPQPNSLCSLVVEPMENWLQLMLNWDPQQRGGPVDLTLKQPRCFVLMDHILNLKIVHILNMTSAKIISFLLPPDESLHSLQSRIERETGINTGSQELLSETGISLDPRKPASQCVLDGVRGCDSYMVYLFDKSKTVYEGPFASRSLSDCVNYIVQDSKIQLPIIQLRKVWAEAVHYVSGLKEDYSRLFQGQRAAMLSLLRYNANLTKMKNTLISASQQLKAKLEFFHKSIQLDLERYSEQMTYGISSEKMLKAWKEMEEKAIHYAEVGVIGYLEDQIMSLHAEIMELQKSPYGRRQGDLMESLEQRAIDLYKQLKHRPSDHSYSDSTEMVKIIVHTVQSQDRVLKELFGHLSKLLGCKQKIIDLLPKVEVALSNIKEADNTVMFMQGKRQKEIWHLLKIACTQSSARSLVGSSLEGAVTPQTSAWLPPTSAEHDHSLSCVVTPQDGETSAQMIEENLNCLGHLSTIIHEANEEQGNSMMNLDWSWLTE
# JAK2(h) = molecular target: T12, JAK2(h) (Homo sapiens, UniProt O60674); test: Eurofins KinaseProfiler radiometric kinase assay; assay type: biochemical; conditions: read-out: JAK2(h) % Residual activity
# T12 construct: purchased Eurofins KinaseProfiler (Eurofins Cerep)
# Mnk2(h) = molecular target: T13, Mnk2(h) (Homo sapiens, UniProt Q9HBH9); test: Eurofins KinaseProfiler radiometric kinase assay; assay type: biochemical; conditions: read-out: Mnk2(h) % Residual activity
# T13 construct: purchased Eurofins KinaseProfiler (Eurofins Cerep)
# T13 sequence (Q9HBH9 whole entry): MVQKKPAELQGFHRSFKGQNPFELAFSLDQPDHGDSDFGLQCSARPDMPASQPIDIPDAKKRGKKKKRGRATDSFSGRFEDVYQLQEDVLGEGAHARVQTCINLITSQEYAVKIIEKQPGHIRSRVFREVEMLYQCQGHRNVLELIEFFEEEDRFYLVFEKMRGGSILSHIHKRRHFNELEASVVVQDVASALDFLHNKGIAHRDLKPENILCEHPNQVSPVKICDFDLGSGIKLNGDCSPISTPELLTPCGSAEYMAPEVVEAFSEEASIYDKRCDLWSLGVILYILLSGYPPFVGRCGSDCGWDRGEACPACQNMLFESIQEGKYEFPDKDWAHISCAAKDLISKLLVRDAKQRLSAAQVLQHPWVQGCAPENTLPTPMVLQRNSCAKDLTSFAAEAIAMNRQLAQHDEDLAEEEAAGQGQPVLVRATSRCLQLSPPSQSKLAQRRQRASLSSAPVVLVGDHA
# p70S6K(h) = molecular target: T14, p70S6K(h) (Homo sapiens, UniProt P23443); test: Eurofins KinaseProfiler radiometric kinase assay; assay type: biochemical; conditions: read-out: p70S6K(h) % Residual activity
# T14 construct: purchased Eurofins KinaseProfiler (Eurofins Cerep)
# PAK2(h) = molecular target: T15, PAK2(h) (Homo sapiens, UniProt Q13177); test: Eurofins KinaseProfiler radiometric kinase assay; assay type: biochemical; conditions: read-out: PAK2(h) % Residual activity
# T15 construct: purchased Eurofins KinaseProfiler (Eurofins Cerep)
# T15 sequence (Q13177 whole entry): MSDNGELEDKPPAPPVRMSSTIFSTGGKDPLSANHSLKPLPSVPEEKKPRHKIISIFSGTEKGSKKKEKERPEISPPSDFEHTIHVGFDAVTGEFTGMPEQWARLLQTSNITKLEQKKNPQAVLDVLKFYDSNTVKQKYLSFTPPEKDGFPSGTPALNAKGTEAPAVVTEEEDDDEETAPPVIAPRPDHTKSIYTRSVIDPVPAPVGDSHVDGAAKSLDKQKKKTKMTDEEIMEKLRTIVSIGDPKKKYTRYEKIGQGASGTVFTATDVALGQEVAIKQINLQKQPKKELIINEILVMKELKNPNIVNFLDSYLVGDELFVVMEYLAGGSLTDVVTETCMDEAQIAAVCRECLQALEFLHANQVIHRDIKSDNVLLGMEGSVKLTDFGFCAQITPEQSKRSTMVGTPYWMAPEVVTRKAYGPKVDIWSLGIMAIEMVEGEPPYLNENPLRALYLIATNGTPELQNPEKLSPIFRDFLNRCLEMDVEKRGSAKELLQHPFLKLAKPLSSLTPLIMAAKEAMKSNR
# Pim-1(h) = molecular target: T16, Pim-1(h) (Homo sapiens, UniProt P11309); test: Eurofins KinaseProfiler radiometric kinase assay; assay type: biochemical; conditions: read-out: Pim-1(h) % Residual activity
# T16 construct: purchased Eurofins KinaseProfiler (Eurofins Cerep)
# PKBα(h) = molecular target: T17, PKBα(h) (Homo sapiens, UniProt P31749); test: Eurofins KinaseProfiler radiometric kinase assay; assay type: biochemical; conditions: read-out: PKBα(h) % Residual activity
# T17 construct: purchased Eurofins KinaseProfiler (Eurofins Cerep)
# PKCθ(h) = molecular target: T18, PKCθ(h) (Homo sapiens, UniProt Q04759); test: Eurofins KinaseProfiler radiometric kinase assay; assay type: biochemical; conditions: read-out: PKCθ(h) % Residual activity
# T18 construct: purchased Eurofins KinaseProfiler (Eurofins Cerep)
# PRAK(h) = molecular target: T19, PRAK(h) (Homo sapiens, UniProt Q8IW41); test: Eurofins KinaseProfiler radiometric kinase assay; assay type: biochemical; conditions: read-out: PRAK(h) % Residual activity
# T19 construct: purchased Eurofins KinaseProfiler (Eurofins Cerep)
# ROCK-I(h) = molecular target: T20, ROCK-I(h) (Homo sapiens, UniProt Q13464); test: Eurofins KinaseProfiler radiometric kinase assay; assay type: biochemical; conditions: read-out: ROCK-I(h) % Residual activity
# T20 construct: purchased Eurofins KinaseProfiler (Eurofins Cerep)
# SRPK1(h) = molecular target: T21, SRPK1(h) (Homo sapiens, UniProt Q96SB4); test: Eurofins KinaseProfiler radiometric kinase assay; assay type: biochemical; conditions: read-out: SRPK1(h) % Residual activity
# T21 construct: purchased Eurofins (Eurofins Cerep) KinaseProfiler
# TAK1(h) = molecular target: T22, TAK1(h) (Homo sapiens, UniProt O43318); test: Eurofins KinaseProfiler radiometric kinase assay; assay type: biochemical; conditions: read-out: TAK1(h) % Residual activity
# T22 construct: purchased Eurofins (Eurofins Cerep) KinaseProfiler
# PI3 Kinase (p120γ)(h) = molecular target: T23, PI3 Kinase (p120γ)(h) (Homo sapiens, UniProt P48736); test: Eurofins KinaseProfiler radiometric kinase assay; assay type: biochemical; conditions: read-out: PI3 Kinase (p120γ)(h) % Residual activity
# T23 construct: purchased Eurofins (Eurofins Cerep) KinaseProfiler
SMILES,Neuroprotection on CGNs (cell viability after serum/potassium deprivation) [1],Abl inhibition (Abl(h)),remaining activity at 10 µM (Abl(h)) [%],remaining activity at 10 µM (AMPKα1(h)) [%],remaining activity at 10 µM (CDK2/cyclinA(h)) [%],remaining activity at 10 µM (CDK9/cyclin T1(h)) [%],remaining activity at 10 µM (CK2α2(h)) [%],remaining activity at 10 µM (c-RAF(h)) [%],remaining activity at 10 µM (DRAK1(h)) [%],remaining activity at 10 µM (eEF-2K(h)) [%],remaining activity at 10 µM (EphA5(h)) [%],remaining activity at 10 µM (EphB4(h)) [%],remaining activity at 10 µM (IKKα(h)) [%],remaining activity at 10 µM (JAK2(h)) [%],remaining activity at 10 µM (Mnk2(h)) [%],remaining activity at 10 µM (p70S6K(h)) [%],remaining activity at 10 µM (PAK2(h)) [%],remaining activity at 10 µM (Pim-1(h)) [%],remaining activity at 10 µM (PKBα(h)) [%],remaining activity at 10 µM (PKCθ(h)) [%],also measured
"Br.Cc1sc(NCc2ccccc2)nc1-c1c[nH]c2ncc(Br)cc12 [Compound 41, N-Benzyl-4-(5-bromo-1H-pyrrolo[2,3-b]pyridin-3-yl)-5-methylthiazol-2-amine Hydrobromide]",mitigate the physiological senescence and mortality rate,completely inhibited,8,54,27,50,83,52,9,121,93,109,96,26,17,50,75,20,104,98,inhibition at 10 µM (DRAK1(h)): > 90%; remaining activity at 10 µM (PRAK(h)): 64%; remaining activity at 10 µM (ROCK-I(h)): 93%; remaining activity at 10 µM (SRPK1(h)): 85%; remaining activity at 10 µM (TAK1(h)): 49%; remaining activity at 10 µM (PI3 Kinase (p120γ)(h)): 80%
"Br.Cc1sc(NCc2ccnc(Cl)c2)nc1-c1c[nH]c2ncccc12 [Compound 43, N-((2-Chloropyridin-4-yl)methyl)-5-methyl-4-(1H-pyrrolo[2,3-b]pyridin-3-yl)thiazol-2-amine Hydrobromide]",mitigate the physiological senescence and mortality rate,completely inhibited,6,60,16,5,100,34,14,108,103,108,99,46,27,14,72,55,103,23,inhibition at 10 µM (CDK9/cyclin T1(h)): > 90%; remaining activity at 10 µM (PRAK(h)): 97%; remaining activity at 10 µM (ROCK-I(h)): 76%; remaining activity at 10 µM (SRPK1(h)): 96%; remaining activity at 10 µM (TAK1(h)): 30%; remaining activity at 10 µM (PI3 Kinase (p120γ)(h)): 94%
